Experimental data taken from patent US20130028937A1 (LABORATORIOS DEL DR. ESTEVE, S.A., priority 2009, published 2013).

Tests used:
[1] = tested on: locomotor activity in mice; assay: Locomotor activity in actimeter cages; conditions: CD-1 mice, 30 min after administration
Method: Male, CD-1 mice (14-18 g, Charles River) were housed in a climate-controlled room for at least 5 days prior to testing. Food and water were available ad libitum up to test time.
The dosing volume was 10 ml/kg.
Eight standard actimeter cages (Linton Instrumentation, Inc.) equipped with infrared beams for the detection of movement were used. After administering the compounds, the animals were returned to their homecages and then placed in the locomotor activity cages 30 min later. Moving time was measured during 30 min, with readings performed every 5 min.

[2] = tested on: incision-induced mechanical allodynia in the rat hind paw; assay: Mechanical allodynia (von Frey filaments) in postoperative pain model after paw incision; type: in vivo; conditions: for efficacy on mechanical allodynia (in words): dose-response curve
Method: Following plantar incision, rats show decreases in response thresholds graded von Frey filaments (mechanical hypersensitivity) (Brennan et al., Pain 1996, 64, 493).
Male, Wistar rats (120-160 g, Harlan, Italy) were housed in a climate-controlled room for at least 5 days prior to testing. Food and water were available ad libitum up to test time.
The dosing volume was 10 ml/kg. The antiallodynic response of the animal was subsequently evaluated 60 min after drug administration.
Rats were anaesthetized with 3% isofluorane for veterinary use, employing an Ohmeda vaporizer and an anaesthesia chamber. Anaesthesia was kept during the surgical operation by a tube which directs the isoflurane vapours to the animal's snout. Once the rats were anaesthetised, they were laid down in a prone position and their right hindpaws were cleaned out with alcohol. Then, a 1 cm longitudinal incision was made with a number 23 scalpel, through skin and fascia of the plantar aspect of the paw, starting 0.5 cm from the proximal edge of the heel and extending toward the toes. Therefore, both superficial (skin) and deep (muscle) tissues and nerves were injured. Finally, the skin of the paw was stitched with a suturing stitch with breaded silk (3.0) and the wound was cleaned out with povidone.
The drugs were tested 4 hours after the surgery (plantar incision); 60 minutes after the administration of the product, one behavioural endpoint was evaluated: mechanical hypersensitivity or allodynia.
Mechanical allodynia was tested using von Frey filaments. Animals were placed in methacrylate cylinders on an elevated surface, with metallic mesh floor perforated in order to apply the filaments. After an acclimation period of about 30 minutes within the cylinders, both hindpaws were stimulated (the injured and the non-injured paw, serving the latter as control), starting with the lowest force filament (0.4 g) and reaching up to a 15 g filament. The animal's response to pain was manifested by the withdrawal of the paw as a consequence of the painful stimulus caused by a filament. The pressure (force in grams) threshold eliciting the withdrawal of the paw was recorded.
The method is based on the comparison of the effect of several doses of the combination at a determined ratio with respect to the effects achieved using different doses of each of the two agents. […] Where it is established that Zt<Zadd for a specific fixed-ratio, then that composition has a synergistic effect. The theoretical additive dose (Zadd) for the co-crystal was then calculated and compared with the experimental ED50 of the combination (Zt) as described in Tallarida, Drug synergism 2001, 298, 865-872 [10].

[3] = Wistar rats, intraperitoneal, 4 hours after plantar incision, 60 min after administration

Row | SMILES | effect on locomotor activity (moving time) ([1]; intraperitoneal, 20, 40, 80 and 160 mg/kg, p>0.05) | inhibition of mechanical allodynia compared with each single drug at equivalent doses ([2]; Wistar rats, intraperitoneal, 60 min after administration) | efficacy on mechanical allodynia (in words) [2, 3] | isobolographic analysis of interaction (Zt vs Zadd) ([2]; molar ratio 1:1, experimental ED50 (Zt) vs theoretical Zadd, p>0.05 Student's t-test) | effect on locomotor activity (moving time) ([1]; intraperitoneal, 80 mg/kg, p<0.001) | effect on locomotor activity (moving time) ([1]; intraperitoneal, doses lower than 80 mg/kg) | maximum efficacy on mechanical allodynia ([2]; Wistar rats, intraperitoneal, 4 hours after plantar incision, 60 min after administration, ceiling effect) | effect on locomotor activity (moving time) ([1]; intraperitoneal, 160 mg/kg, p<0.05 compared with vehicle) | effect on locomotor activity (moving time) ([1]; intraperitoneal, doses lower than 160 mg/kg)
1 | COc1ccc(C(CN(C)C)C2(O)CCCCC2)cc1.Cc1ccc(-c2cc(C(F)(F)F)nn2-c2ccc(S(N)(=O)=O)cc2)cc1 (racemic) [Celecoxib—(rac)-venlafaxine co-crystal (1:1)] | did not show any significant side-effect | superior benefit | full efficacy | additive interaction | – | – | – | – | –
2 | COc1ccc(C(CN(C)C)C2(O)CCCCC2)cc1 (racemic) [Venlafaxine, (rac)-1-[2-dimethylamino-1-(4-methoxyphenyl)-ethyl]cyclohexanol] | – | – | – | – | significant side-effects increasing | no statistically significant effects | 58.40% | – | –
3 | Cc1ccc(-c2cc(C(F)(F)F)nn2-c2ccc(S(N)(=O)=O)cc2)cc1 [Celecoxib, 4-[5-(4-methylphenyl)-3-(trifluoromethyl)pyrazol-1-yl]benzenesulfonamide] | – | – | full efficacy | – | – | – | – | significant side-effects decreasing | No effects
